# Measurements from PubChem BioAssay AID1963865 (Molecular Pharmacology Branch, DTP, NCI, 2024).
# Test system: KRAS PDC multicell spheroid viability
# Experiment: Anticancer human tumor 825966-067-R-J1-PDC patient-derived colon carcinoma cell line growth inhibition [KRAS2]
# Settings: for IC50: curve of first compound; for viability, T/C: stronger effect = lower value
# Summary of the method: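 Combination screen of spheroid viability in tumor-cell co-cultures with endothelial (HUVEC) and mesenchymal stem cell stroma. Each agent was tested in half-log dilutions, topping at clinical Cmax or at 10 microM without a known Cmax.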
# [1] = second compound 0.1 µM, first compound 0.0316 µM
# [2] = second compound 0.1 µM, first compound 0.1 µM
# [3] = second compound 0.1 µM, first compound 0.316 µM
# [4] = second compound 0.1 µM, first compound 1 µM
# [5] = second compound 0.1 µM, first compound 3.16 µM
# [6] = second compound 0.1 µM, first compound 10 µM
# [7] = second compound 0.316 µM, first compound 0.0316 µM
# [8] = second compound 0.316 µM, first compound 0.1 µM
# [9] = second compound 0.316 µM, first compound 0.316 µM
# [10] = second compound 0.316 µM, first compound 1 µM
# [11] = second compound 0.316 µM, first compound 3.16 µM
# [12] = second compound 0.316 µM, first compound 10 µM
# [13] = second compound 1 µM, first compound 0.0316 µM
# [14] = second compound 1 µM, first compound 0.1 µM
# [15] = second compound 1 µM, first compound 0.316 µM
# [16] = second compound 1 µM, first compound 1 µM
# [17] = second compound 1 µM, first compound 3.16 µM
# [18] = second compound 1 µM, first compound 10 µM
# [19] = second compound 3.16 µM, first compound 0.0316 µM
# [20] = second compound 3.16 µM, first compound 0.1 µM
# [21] = second compound 3.16 µM, first compound 0.316 µM
# [22] = second compound 3.16 µM, first compound 1 µM
# [23] = second compound 3.16 µM, first compound 3.16 µM
# [24] = second compound 3.16 µM, first compound 10 µM
# [25] = second compound 10 µM, first compound 0.0316 µM
# [26] = second compound 10 µM, first compound 0.1 µM
# [27] = second compound 10 µM, first compound 0.316 µM
# [28] = second compound 10 µM, first compound 1 µM
# [29] = second compound 10 µM, first compound 3.16 µM
# [30] = second compound 10 µM, first compound 10 µM
# [31] = second compound 0.1 µM, first compound 0.01 µM
# [32] = second compound 0.316 µM, first compound 0.01 µM
# [33] = second compound 1 µM, first compound 0.01 µM
# [34] = second compound 3.16 µM, first compound 0.01 µM
# [35] = second compound 10 µM, first compound 0.01 µM
# 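Further: spheroids exposed to compounds for 7 days.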
# 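Wherever viability, T/C is given: 100% = DMSO vehicle control viability.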
Structure (SMILES),IC50 (second compound 0.1 µM) [µM],IC50 (second compound 0.316 µM) [µM],IC50 (second compound 1 µM) [µM],IC50 (second compound 3.16 µM) [µM],IC50 (second compound 10 µM) [µM],"viability, T/C [1] [%]","viability, T/C [2] [%]","viability, T/C [3] [%]","viability, T/C [4] [%]","viability, T/C [7] [%]","viability, T/C [8] [%]","viability, T/C [9] [%]","viability, T/C [10] [%]","viability, T/C [13] [%]","viability, T/C [14] [%]","viability, T/C [15] [%]","viability, T/C [16] [%]","viability, T/C [19] [%]","viability, T/C [20] [%]","viability, T/C [21] [%]",other results
CC(C)NCC(C(=O)N1CCN(c2ncnc3c2C(C)CC3O)CC1)c1ccc(Cl)cc1 (stereo not given) + COc1cc2nc(C)nc(NC(C)c3cc(N)cc(C(F)(F)F)c3)c2cc1OC1CCOC1,2.5,2.45,1.74,1.88,< 0.0316,122,113,148,97.1,103,129,122,130,114,128,151,75.7,111,125,104,"viability, T/C [5]: 39.4%; viability, T/C [6]: 11.2%; viability, T/C [11]: 29.7%; viability, T/C [12]: 8.59%; viability, T/C [17]: 37.4%; viability, T/C [18]: 7.58%; viability, T/C [22]: 97.7%; viability, T/C [23]: 10.9%; viability, T/C [24]: 5.94%; viability, T/C [25]: 22.4%; viability, T/C [26]: 5.84%; viability, T/C [27]: 3.69%; viability, T/C [28]: 1.56%; viability, T/C [29]: 2.14%; viability, T/C [30]: 3.53%"
CC1COCCN1c1cc(-c2ccnn2C)c2ccnc(-c3ccn[nH]3)c2n1 (stereo not given) + COc1cc2nc(C)nc(NC(C)c3cc(N)cc(C(F)(F)F)c3)c2cc1OC1CCOC1,> 3.16,> 3.16,0.152,0.0692,0.0123,122,67.6,55,55.8,112,58.3,58.1,52.7,80.4,61.5,28.3,34.8,97.9,27.4,27.5,"viability, T/C [31]: 106%; viability, T/C [5]: 40.1%; viability, T/C [32]: 112%; viability, T/C [11]: 38.8%; viability, T/C [33]: 74.6%; viability, T/C [17]: 27.1%; viability, T/C [34]: 130%; viability, T/C [22]: 23.9%; viability, T/C [23]: 19.8%; viability, T/C [35]: 56.6%; viability, T/C [25]: 21.1%; viability, T/C [26]: 7.19%; viability, T/C [27]: 3.93%; viability, T/C [28]: 2.81%; viability, T/C [29]: 0.97%"
CC1OCC2(CCN(c3cnc(Sc4ccnc(N)c4Cl)c(N)n3)CC2)C1N (stereo not given) + COc1cc2nc(C)nc(NC(C)c3cc(N)cc(C(F)(F)F)c3)c2cc1OC1CCOC1,> 10,6.76,7.2,5.48,0.557,88.2,83.7,74,75.6,87.4,89,88,95.9,89,88,81.7,91.3,93.9,104,101,"viability, T/C [5]: 100%; viability, T/C [6]: 58%; viability, T/C [11]: 95.5%; viability, T/C [12]: 28.8%; viability, T/C [17]: 89.4%; viability, T/C [18]: 34.7%; viability, T/C [22]: 98.5%; viability, T/C [23]: 91.6%; viability, T/C [24]: 4.35%; viability, T/C [25]: 76.5%; viability, T/C [26]: 68.7%; viability, T/C [27]: 63.1%; viability, T/C [28]: 37.4%; viability, T/C [29]: 8.46%; viability, T/C [30]: 0.53%"
CCN1CCN(Cc2ccc(Nc3ncc(F)c(-c4cc(F)c5nc(C)n(C(C)C)c5c4)n3)nc2)CC1 + COc1cc2nc(C)nc(NC(C)c3cc(N)cc(C(F)(F)F)c3)c2cc1OC1CCOC1,> 1,> 1,> 1,> 1,0.0319,121,170,129,183,111,132,172,161,104,152,179,92.7,161,158,171,"viability, T/C (second compound 0.1 µM, first compound 0.00316 µM): 99.6%; viability, T/C [31]: 111%; viability, T/C (second compound 0.316 µM, first compound 0.00316 µM): 99.3%; viability, T/C [32]: 109%; viability, T/C (second compound 1 µM, first compound 0.00316 µM): 103%; viability, T/C [33]: 109%; viability, T/C (second compound 3.16 µM, first compound 0.00316 µM): 118%; viability, T/C [34]: 142%; viability, T/C [22]: 50.1%; viability, T/C (second compound 10 µM, first compound 0.00316 µM): 82.9%; viability, T/C [35]: 87.8%; viability, T/C [25]: 38.3%; viability, T/C [26]: 31.5%; viability, T/C [27]: 5.53%; viability, T/C [28]: 1.46%"
CCNC(=O)CC1N=C(c2ccc(Cl)cc2)c2cc(OC)ccc2-n2c(C)nnc21 (stereo not given) + COc1cc2nc(C)nc(NC(C)c3cc(N)cc(C(F)(F)F)c3)c2cc1OC1CCOC1,> 10,> 10,> 10,2.46,0.0556,97.2,119,104,80.3,97.6,111,98.2,75.2,101,109,118,77.1,131,97.6,114,"viability, T/C [5]: 73.4%; viability, T/C [6]: 69.1%; viability, T/C [11]: 59.9%; viability, T/C [12]: 69.1%; viability, T/C [17]: 98.8%; viability, T/C [18]: 70.8%; viability, T/C [22]: 71.7%; viability, T/C [23]: 41%; viability, T/C [24]: 47%; viability, T/C [25]: 77.8%; viability, T/C [26]: 19%; viability, T/C [27]: 17.4%; viability, T/C [28]: 8.42%; viability, T/C [29]: 13.1%; viability, T/C [30]: 1.45%"
Cn1nccc1Nc1nccc(-c2cc3c(s2)C(C)(C)N(CCN2CCOCC2)C3=O)n1 + COc1cc2nc(C)nc(NC(C)c3cc(N)cc(C(F)(F)F)c3)c2cc1OC1CCOC1,> 10,> 10,> 10,10,0.0952,105,120,146,102,110,112,126,81,114,117,121,79.3,103,130,85.7,"viability, T/C [5]: 83.1%; viability, T/C [6]: 72.2%; viability, T/C [11]: 83.8%; viability, T/C [12]: 67.7%; viability, T/C [17]: 80.9%; viability, T/C [18]: 65.7%; viability, T/C [22]: 49.7%; viability, T/C [23]: 62.5%; viability, T/C [24]: 45.6%; viability, T/C [25]: 70.3%; viability, T/C [26]: 49.1%; viability, T/C [27]: 2.05%; viability, T/C [28]: 0.83%; viability, T/C [29]: 0.32%; viability, T/C [30]: 0.87%"
